{
  "source": "paper PMC8692891",
  "about": "(Frontiers in Immunology, 2021)",
  "key": {"HIV-1 ADA": {"tested_on": "HIV-1 ADA", "experiment": "MDLCs-mediated HIV-1 trans-infection to CD4+ T-cells", "type": "cell-based", "settings": "for Inhibition of MDLCs-mediated HIV-1 trans-infection (in words): p24 ELISA or GFP-reporter T-cells by flow cytometry", "procedure": "(§1) For langerin surface expression, MDLCs were washed and stained for 20 min on ice in a final volume of 50 µl PBS with a phycoerythrin (PE)-conjugated mouse monoclonal Ab against human langerin (clone DCGM4, Beckman Coulter), or matched isotype control. For HIV-1 trans-infection, MDLCs were washed and pulsed with HIV-1 ADA (1ng p24 corresponding to multiplicity of infection of 0.2) for 4 h. MDLCs were next incubated with autologous CD4+ T-cells or with green fluorescent protein (GFP)-reporter T-cells, and HIV-1 replication was measured in the co-culture supernatants using p24 ELISA (Fujirebio) or by evaluating GFP fluorescent by flow cytometry, as we described ([13]–[15]). Fluorescent profiles were acquired using a Guava easyCite and analyzed with the InCyte software (Merck-Millipore).\n(§2) Data was analyzed using Prism software (GraphPad). Concentration-response curves were analyzed with the [log(agonist) vs. response (three parameters)] model for langrin upregulation and the [log(inhibitor) vs. normalized response − variable slope] model for HIV-1 trans-infection inhibition. The -log molar concentrations of agonists generating 50% response represented potencies (i.e., pEC50 and pIC50). Statistical significance was analyzed with the two-tailed Student’s t-test.\nThe cells were then pulsed with HIV-1 ADA for 4 h, washed, and incubated for 7 days with autologous CD4+ T-cells (A–C) or 3 days with HIV-1 GFP-reporter T-cells (D). HIV-1 trans-infection and replication in T-cells was evaluated by p24 ELISA in the co-culture supernatants or by GFP expression and flow cytometry."}, "[1]": {"tested_on": "langerin surface expression in MDLCs", "experiment": "Langerin surface expression in MDLCs (flow cytometry)", "type": "cell-based, human", "procedure": "as §1, §2\nThe cells were then stained for surface langerin and examined by flow cytometry."}, "[2]": {"tested_on": "STAT4 expression in MDLCs", "experiment": "STAT4 Western blot in MDLCs", "type": "cell-based, human", "settings": "n = 4; for Total STAT4 expression: MDLCs treated 24 h, CGRP 0.1 μM, SAX 0.1 μM, CGRP1–8 10 μM, LPS 10 μg/ml, normalized to beta actin", "procedure": "For PBMCs, cells (2 × 10^6/sample) were activated with PHA (5 μg/ml) + IL2 (100 U/ml) for 48 h at 37°C, serum-starved overnight, and stimulated for 30 min at 37°C with either IL12 (10 ng/ml; R&D systems) or interferon alpha (IFNα, 5 × 10^4 U/ml; pbl Assay Science). For MDLCs, cells (2 × 10^6/sample) were re-suspended in complete RPMI medium without cytokines and rested overnight at 37°C. […] The cells were then washed and stimulated for 30 min at 37°C with combination of IL12 + IFNα at the concentrations indicated above. PBMCs/MDLCs were subsequently lysed for 30 min on ice with 100 μl lysis buffer [50 mM Tris buffer pH = 7.5, 150 mM NaCl, 2 mM EDTA, 1% Triton X100, 0.1% SDS, 1:100 dilutions of phosphatase inhibitors II/III and protease inhibitor cocktail (Sigma)], followed by three cycles of 10 s vortex and 10 min incubation on ice. Lysates were centrifuged for 10 min at 4°C/13,200 rpm, and supernatants were collected and stored at −80°C. […] Blocking was performed for 1 h at room temperature with blocking buffer (Tris-buffered saline (TBS), 0.5% Tween 20, and 0.5% dry milk). The blots were next incubated overnight at 4°C with commercial rabbit polyclonal Abs suitable for WB, directed against human STAT4 (Proteintech #13028-1AP, 0.5 μg/ml) or phosphorylated STAT4 (pSTAT4; R&D systems, #AF4319, 1 μg/ml), followed by 1:1,000 dilution of HRP-conjugated donkey-anti-rabbit IgG Ab (Southern Biotech) for 1 h at room temperature. Loading control was verified by incubation with goat polyclonal Ab to beta actin (abcam, 0.4 μg/ml), followed by 1:5,000 dilution of HRP-conjugated donkey-anti-goat IgG Ab (Promega). All Abs were diluted in blocking buffer, and pre-stained SDS-PAGE standard markers (ThermoFisher) were applied to determine molecular weights. Revelation was performed for 1–10 s with ECL-Prime chemiluminescence detection kit (Amersham). Images were acquired with the Fusion FX camera platform (Vilber Lournmat) and protein expression was quantified with ImageJ software (NIH).\n(A, B) PHA/IL2-activated PBMCs were serum-starved overnight at 37°C, and left untreated (Un) or stimulated for 30 min with either IL12 or IFNα. […] (F) MDLCs were treated as described in panels (C, D) above, and further stimulated for 30 min with combination of IL12 + IFNα."}, "[3]": {"tested_on": "HIV-1 (V29)-infected PBMCs", "experiment": "HIV-1 infection of dermal T-cells in inner foreskin tissue explants ex-vivo", "type": "cell-based", "settings": "explants pre-treated 24 h at 1 μM, inoculated 4 h, further three days incubation; flow cytometry; n = 4", "experimental": "For infection experiments, round (8 mm diameter) inner foreskin tissue pieces were placed in 24-well plates and incubated submerged for 24 h at 37°C with 1 ml complete RPMI medium, alone or supplemented with CGRP or SAX (1 μM, four explants per condition). The tissues were next washed, transferred to two-chamber transwell inserts (Sigma), and inoculated in a polarized manner for 4 h at 37°c with either non-infected or HIV-1 (V29)-infected PBMCs (in duplicates), as we described ([11], [12]).\nDermal cell suspensions were prepared following washing of the explants, additional incubation for three days at 37°C submerged in 1 ml fresh medium, and subsequent enzymatic digestion with collagenase/DNase as we described ([11], [12]). Pooled cells of each duplicate were surface stained as above using FITC-conjugated mouse-anti-human CD3 Ab (Pharmingen), fixed, permeabilized, and stained for 30 min at room temperature with 1:160 dilution of PE-conjugated mouse-anti-human Ab to HIV-1 p24 and core antigens (Beckman Coulter). Fluorescent profiles were recorded using a Guava easyCyte and InCyte software.\n(D, E) Other explants were further incubated for additional three days and digested with collagenase/DNase. In panel (D), shown are representative flow cytometry dot plots of dermal cell suspensions double stained for surface CD3 and intracellular p24 and examined by flow cytometry. […]"}, "[4]": {"settings": "cited from earlier work", "description": "However, CGRP-mediated vasodilation is potentially protective, at least during hypertension and cardiovascular complications ([5])."}},
  "note": "Where no end group is shown, it is not given here.",
  "data": [
    {"compound": "serinyl-CGRP2-37-amide with an albumin binding fatty acid moiety in the N-terminus [SAX]", "values": [
      {"measurement": "pIC50 [95% CI], inhibition of MDLCs-mediated HIV-1 trans-infection", "setting": "HIV-1 ADA; MDLCs treated 24 h, pulsed with HIV-1 ADA 4 h, 7 days with autologous CD4+ T-cells, p24 ELISA, -log molar, n = 5", "value": "8.9 [9.9–7.9]"},
      {"measurement": "Inhibition of MDLCs-mediated HIV-1 trans-infection (in words)", "setting": "HIV-1 ADA; MDLCs treated 24 h", "value": "significantly inhibited"},
      {"measurement": "Fold lower potency of SAX than CGRP", "setting": "HIV-1 ADA; blocking HIV-1 trans-infection in MDLCs", "value": "> 10", "unit": "fold"},
      {"measurement": "pEC50 [95% CI], increase in langerin surface expression", "setting": "[1]; MDLCs treated 24 h, flow cytometry, -log molar, n = 5", "value": "8.3 [9.6–6.5]"},
      {"measurement": "Total STAT4 expression", "setting": "[2]", "value": "significantly increased"},
      {"measurement": "Phosphorylation of induced STAT4 (pSTAT4) upon cytokine stimulation", "setting": "[2]; after 24 h agonist treatment, 30 min IL12 + IFNα", "value": "could be readily phosphorylated"},
      {"measurement": "HIV-1 infection of dermal T-cells (p24+CD3+)", "setting": "[3]", "value": "undetectable levels"},
      {"measurement": "Half-life compared to CGRP", "setting": "[4]", "value": "longer"}
    ]},
    {"compound": "lipopolysaccharide [LPS]", "values": [
      {"measurement": "Total STAT4 expression", "setting": "[2]", "value": "significantly increased"}
    ]},
    {"compound": "CGRP1–8: previously described CGRP N-terminal fragment (ACDTATCV; not fully specified (bridges); ends and bridges not checked; UniProt P06881 83-90, looked up, fragment)", "values": [
      {"measurement": "Inhibition of MDLCs-mediated HIV-1 trans-infection (in words)", "setting": "HIV-1 ADA; MDLCs treated 24 h", "value": "lacks anti-HIV-1 inhibitory activity"},
      {"measurement": "Increase in langerin surface expression (in words)", "setting": "[1]; MDLCs treated 24 h, flow cytometry", "value": "fails to increase"},
      {"measurement": "Total STAT4 expression", "setting": "[2]", "value": "failed to increase"}
    ]},
    {"compound": "NCCCC[C@H](NC(=O)[C@@H](Cc1cc(Br)c(O)c(Br)c1)NC(=O)N1CCC(N2Cc3ccccc3NC2=O)CC1)C(=O)N1CCN(c2ccncc2)CC1", "note": "[BIBN4096]", "values": [
      {"measurement": "Effect of antagonist on CGRP- and SAX-mediated inhibition of HIV-1 trans-infection", "setting": "HIV-1 ADA; BIBN4096 1 μM added 15 min before agonists (0.1 μM), n = 3", "value": "completely abrogated"},
      {"measurement": "Effect of antagonist on CGRP- and SAX-mediated increase in langerin expression", "setting": "[1]; BIBN4096 1 μM added 15 min before agonists (0.1 μM), n = 4", "value": "completely abrogated"},
      {"measurement": "Effect of antagonist on CGRP- and SAX-mediated increase in STAT4", "setting": "[2]; BIBN4096 1 μM added 15 min before agonists (0.1 μM)", "value": "abrogated"}
    ]}
  ]
}
